US6914045B2, “Glycopeptide antibiotics” (Wyeth Holdings Corporation, priority 2001, dated 2005)
Values after ≈ are worked out from the molar mass of the structure shown.

Tests used:
[1] = test system: Enterococcus faecalis (GC 2246); test: acute lethal infection in mice; format: in vivo; details: female CD-1 mice, intraperitoneal challenge, intravenous 30 min. after infection, 7 day survival
How it was run: (§1)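 Intraperitoneal challenge of female CD-1 mice with a bacterial dose lethal to untreated animals within 24-48 hr; single iv treatment 30 min later, 5 mice per dose level. Survival is scored at day 7 and pooled from three experiments to give the median effective dose.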

[2] = test system: Staphylococcus aureus-SMITH (GC 4543); test: acute lethal infection in mice; format: in vivo; details: acute lethal infection, female CD-1 mice, intraperitoneal challenge, intravenous 30 min. after infection, 7 day survival
How it was run: as §1

Escherichia coli = test: in vitro antibacterial evaluation, MIC by broth dilution; format: cell-based; details: 18 hours at 35° C., strain ATCC 25922
How it was run: (§2)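 Inoculum 5×10^5 CFU/mL; concentrations 64 to 0.06 μg/mL; MIC defined as lowest inhibitory level. Conducted by broth dilution under NCCLS guidelines.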

Staphylococcus sp. = test: as above; format: cell-based; details: broth dilution, 18 hours at 35° C.
How it was run: as §2

Enterococcus sp. = test: as above; format: cell-based; details: broth dilution, 18 hours at 35° C.
How it was run: as §2

Streptococcus sp. = test: as above; format: cell-based; details: broth dilution, 18 hours at 35° C.
How it was run: as §2

CCCC(CCC)C(=O)OCC1OC(OC2C(CO)OC(Oc3ccc(CC4NC(=O)C(C(C)c5ccccc5)NC(=O)CNC(=O)C(CO)NC(=O)C(C(O)C5CNC(=N)N5C5OC(CO)C(O)C(O)C5O)NC(=O)C(C(O)C5CNC(=N)N5)NC4=O)cc3)C(O)C2O)C(O)C(O)C1O (stereo not drawn) [Example 99c, Cyclo[glycyl-β-methylphenylalanyl-O-[4-O-[6-O-(2-propylpentanoyl)hexopyranosyl]-hexolpyranosyl]tyrosyl-3-(2-iminoimidazolidin-4-yl)seryl-3-(3-hexopyranosyl-2-iminoimidazolidin-4-yl)serylseryl]]
median effective dose (ED50), Enterococcus faecalis (GC 2246) [1]: 4.3 mg/kg | median effective dose (ED50), Staphylococcus aureus-SMITH (GC 4543) [2]: 0.52 mg/kg | MIC Escherichia coli (ATCC 25922) (Escherichia coli): 64 µg/mL (≈ 45 µM) | MIC Coagulase Negative Staphylococcus (GC 4547) (Staphylococcus sp.): 1 µg/mL (≈ 0.703 µM) | MIC Coagulase Negative Staphylococcus (GC 4548) (Staphylococcus sp.): 1 µg/mL (≈ 0.703 µM) | MIC Coagulase Negative Staphylococcus (GC 4549) (Staphylococcus sp.): 1 µg/mL (≈ 0.703 µM) | MIC Coagulase Negative Staphylococcus (GC 4551) (Staphylococcus sp.): 2 µg/mL (≈ 1.41 µM) | MIC Coagulase Negative Staphylococcus (ID-3941) (Staphylococcus sp.): 1 µg/mL (≈ 0.703 µM) | MIC Staphylococcus aureus (ATCC 29213) (Staphylococcus sp.): 1 µg/mL (≈ 0.703 µM) | MIC Staphylococcus aureus (GC 1131) (Staphylococcus sp.): 2 µg/mL (≈ 1.41 µM) | MIC Staphylococcus aureus (GC 4541) (Staphylococcus sp.): 2 µg/mL (≈ 1.41 µM) | MIC Staphylococcus aureus (GC 4542) (Staphylococcus sp.): 1 µg/mL (≈ 0.703 µM) | MIC Staphylococcus aureus (GC 4544) (Staphylococcus sp.): 2 µg/mL (≈ 1.41 µM) | MIC Staphylococcus aureus (GC 4545) (Staphylococcus sp.): 1 µg/mL (≈ 0.703 µM) | MIC Staphylococcus aureus-SMITH (GC 4543) (Staphylococcus sp.): 1 µg/mL (≈ 0.703 µM) | MIC Staphylococcus haemolyticus (GC 4546) (Staphylococcus sp.): 1 µg/mL (≈ 0.703 µM) | MIC Staphylococcus haemolyticus (GC 4546) (Staphylococcus sp.; strain GC 4546): 1 µg/mL (≈ 0.703 µM) | MIC Coagulase Negative Staphylococcus (GC 4547) (Staphylococcus sp.; strain GC 4547): 1 µg/mL (≈ 0.703 µM) | MIC Coagulase Negative Staphylococcus (GC 4548) (Staphylococcus sp.; strain GC 4548): 1 µg/mL (≈ 0.703 µM) | MIC Coagulase Negative Staphylococcus (GC 4549) (Staphylococcus sp.; strain GC 4549): 1 µg/mL (≈ 0.703 µM) | MIC Coagulase Negative Staphylococcus (GC 4551) (Staphylococcus sp.; strain GC 4551): 2 µg/mL (≈ 1.41 µM) | MIC Coagulase Negative Staphylococcus (ID-3941) (Staphylococcus sp.; strain ID-3941): 1 µg/mL (≈ 0.703 µM) | MIC Staphylococcus aureus-SMITH (GC 4543) (Staphylococcus sp.; strain SMITH GC 4543): 1 µg/mL (≈ 0.703 µM) | MIC Staphylococcus aureus (ATCC 29213) (Staphylococcus sp.; strain ATCC 29213): 1 µg/mL (≈ 0.703 µM) | MIC Staphylococcus aureus (GC 1131) (Staphylococcus sp.; strain GC 1131): 2 µg/mL (≈ 1.41 µM) | MIC Staphylococcus aureus (GC 4541) (Staphylococcus sp.; strain GC 4541): 2 µg/mL (≈ 1.41 µM) | MIC Staphylococcus aureus (GC 4542) (Staphylococcus sp.; strain GC 4542): 1 µg/mL (≈ 0.703 µM) | MIC Staphylococcus aureus (GC 4544) (Staphylococcus sp.; strain GC 4544): 2 µg/mL (≈ 1.41 µM) | MIC Staphylococcus aureus (GC 4545) (Staphylococcus sp.; strain GC 4545): 1 µg/mL (≈ 0.703 µM) | MIC Enterococcus avium (GC 4558) (Enterococcus sp.; Enterococcus avium (GC 4558)): 4 µg/mL (≈ 2.81 µM) | MIC Enterococcus faecalis (ATCC 29212) (Enterococcus sp.; Enterococcus faecalis (ATCC 29212)): 4 µg/mL (≈ 2.81 µM) | MIC Enterococcus faecalis (GC 2242) (Enterococcus sp.; Enterococcus faecalis (GC 2242)): 4 µg/mL (≈ 2.81 µM) | MIC Enterococcus faecalis (GC 4552) (Enterococcus sp.; Enterococcus faecalis (GC 4552)): 4 µg/mL (≈ 2.81 µM) | MIC Enterococcus faecalis (GC 4553) (Enterococcus sp.; Enterococcus faecalis (GC 4553)): 4 µg/mL (≈ 2.81 µM) | MIC Enterococcus faecalis (GC 4554) (Enterococcus sp.; Enterococcus faecalis (GC 4554)): 4 µg/mL (≈ 2.81 µM) | MIC Enterococcus faecium (GC 2243) (Enterococcus sp.; Enterococcus faecium (GC 2243)): 4 µg/mL (≈ 2.81 µM) | MIC Enterococcus faecium (GC 4556) (Enterococcus sp.; Enterococcus faecium (GC 4556)): 4 µg/mL (≈ 2.81 µM) | MIC Enterococcus faecium (GC 4557) (Enterococcus sp.; Enterococcus faecium (GC 4557)): 2 µg/mL (≈ 1.41 µM) | MIC Enterococcus faecalis (ATCC 29212) (Enterococcus sp.; strain ATCC 29212): 4 µg/mL (≈ 2.81 µM) | MIC Enterococcus faecalis (GC 2242) (Enterococcus sp.; strain GC 2242): 4 µg/mL (≈ 2.81 µM) | MIC Enterococcus faecium (GC 2243) (Enterococcus sp.; strain GC 2243): 4 µg/mL (≈ 2.81 µM) | MIC Enterococcus faecalis (GC 4552) (Enterococcus sp.; strain GC 4552): 4 µg/mL (≈ 2.81 µM) | MIC Enterococcus faecalis (GC 4553) (Enterococcus sp.; strain GC 4553): 4 µg/mL (≈ 2.81 µM) | MIC Enterococcus faecalis (GC 4554) (Enterococcus sp.; strain GC 4554): 4 µg/mL (≈ 2.81 µM) | MIC Enterococcus faecium (GC 4556) (Enterococcus sp.; strain GC 4556): 4 µg/mL (≈ 2.81 µM) | MIC Enterococcus faecium (GC 4557) (Enterococcus sp.; strain GC 4557): 2 µg/mL (≈ 1.41 µM) | MIC Enterococcus avium (GC 4558) (Enterococcus sp.; strain GC 4558): 4 µg/mL (≈ 2.81 µM) | MIC Streptococcus agalactiae (GC 4564) (Streptococcus sp.; Streptococcus agalactiae (GC 4564)): <0.5 µg/mL | MIC Streptococcus pneumoniae (GC 4565) (Streptococcus sp.; Streptococcus pneumoniae (GC 4565)): <0.5 µg/mL | MIC Streptococcus pyogenes (ID-3187) (Streptococcus sp.; Streptococcus pyogenes (ID-3187)): <0.5 µg/mL | MIC Streptococcus agalactiae (GC 4564) (Streptococcus sp.; strain GC 4564): <0.5 µg/mL | MIC Streptococcus pneumoniae (GC 4565) (Streptococcus sp.; strain GC 4565): <0.5 µg/mL | MIC Streptococcus pyogenes (ID-3187) (Streptococcus sp.; strain ID-3187): <0.5 µg/mL
